Test [1] relates to GUS activity in faecal extracts. The test can be described thus: pNPG processing assay in faecal extracts of DCF-treated mice. The note with it: single dose DCF 60 mg/kg intraperitoneal, faeces 12 hours after, 1 mM pNPG, pH 7.4.
The target in test [2] is E. coli GUS (EcGUS) (Escherichia coli, UniProt P05804). The note with it: pNPG as substrate; optimal pH 7.4; cited from earlier work.
The target in test [3] is T1, Lactobacillus rhamnosus GUS (LrGUS) (Lacticaseibacillus rhamnosus, UniProt A0A2A5L2J1).
T1 sequence (A0A2A5L2J1 1-603): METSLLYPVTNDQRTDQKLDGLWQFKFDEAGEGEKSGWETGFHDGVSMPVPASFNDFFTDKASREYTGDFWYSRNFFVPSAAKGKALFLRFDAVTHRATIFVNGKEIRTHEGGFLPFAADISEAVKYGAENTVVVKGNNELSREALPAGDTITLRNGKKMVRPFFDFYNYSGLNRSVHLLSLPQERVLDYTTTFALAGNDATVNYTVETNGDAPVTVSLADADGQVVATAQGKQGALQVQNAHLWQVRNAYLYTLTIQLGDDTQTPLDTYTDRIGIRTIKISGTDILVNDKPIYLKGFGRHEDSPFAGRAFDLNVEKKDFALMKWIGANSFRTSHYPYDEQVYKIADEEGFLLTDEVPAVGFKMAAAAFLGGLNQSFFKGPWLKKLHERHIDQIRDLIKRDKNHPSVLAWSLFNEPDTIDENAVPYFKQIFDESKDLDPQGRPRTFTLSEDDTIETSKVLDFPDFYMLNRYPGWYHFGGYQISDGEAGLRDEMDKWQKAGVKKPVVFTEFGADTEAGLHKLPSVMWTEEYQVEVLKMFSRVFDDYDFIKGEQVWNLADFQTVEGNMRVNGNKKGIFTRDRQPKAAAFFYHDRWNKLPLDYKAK
The note with it: pNPG as substrate; optimal pH 4.5; 37 °C.

Test [4] concerns the target T2, Ruminococcus gnavus GUS (RgGUS) (Mediterraneibacter gnavus, UniProt A0A2N5PVZ8).
T2 sequence (A0A2N5PVZ8 1-603): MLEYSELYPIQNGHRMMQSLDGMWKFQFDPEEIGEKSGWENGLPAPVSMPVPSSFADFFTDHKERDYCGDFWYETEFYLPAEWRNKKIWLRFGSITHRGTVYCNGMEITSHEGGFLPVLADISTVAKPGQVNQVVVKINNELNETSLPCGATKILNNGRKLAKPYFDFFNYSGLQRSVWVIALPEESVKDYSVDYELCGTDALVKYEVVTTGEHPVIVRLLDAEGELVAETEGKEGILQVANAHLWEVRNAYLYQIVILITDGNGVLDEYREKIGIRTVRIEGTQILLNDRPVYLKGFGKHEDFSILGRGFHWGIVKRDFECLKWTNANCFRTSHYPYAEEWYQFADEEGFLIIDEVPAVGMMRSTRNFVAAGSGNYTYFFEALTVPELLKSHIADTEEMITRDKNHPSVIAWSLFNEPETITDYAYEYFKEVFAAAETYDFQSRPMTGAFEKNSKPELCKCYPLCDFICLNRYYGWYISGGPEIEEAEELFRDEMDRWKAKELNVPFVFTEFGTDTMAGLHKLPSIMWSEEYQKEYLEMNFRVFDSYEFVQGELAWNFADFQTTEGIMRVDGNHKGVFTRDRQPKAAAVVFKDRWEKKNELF
Format: biochemical. The note with it: pNPG as substrate; optimal pH 6.5; apparent value estimated at low pNPG concentrations.

For test [5], the target named is T3, Faecalibacterium prausnitzii GUS (FpGUS) (Faecalibacterium duncaniae, UniProt C7H4D2).
T3 sequence (C7H4D2 1-608): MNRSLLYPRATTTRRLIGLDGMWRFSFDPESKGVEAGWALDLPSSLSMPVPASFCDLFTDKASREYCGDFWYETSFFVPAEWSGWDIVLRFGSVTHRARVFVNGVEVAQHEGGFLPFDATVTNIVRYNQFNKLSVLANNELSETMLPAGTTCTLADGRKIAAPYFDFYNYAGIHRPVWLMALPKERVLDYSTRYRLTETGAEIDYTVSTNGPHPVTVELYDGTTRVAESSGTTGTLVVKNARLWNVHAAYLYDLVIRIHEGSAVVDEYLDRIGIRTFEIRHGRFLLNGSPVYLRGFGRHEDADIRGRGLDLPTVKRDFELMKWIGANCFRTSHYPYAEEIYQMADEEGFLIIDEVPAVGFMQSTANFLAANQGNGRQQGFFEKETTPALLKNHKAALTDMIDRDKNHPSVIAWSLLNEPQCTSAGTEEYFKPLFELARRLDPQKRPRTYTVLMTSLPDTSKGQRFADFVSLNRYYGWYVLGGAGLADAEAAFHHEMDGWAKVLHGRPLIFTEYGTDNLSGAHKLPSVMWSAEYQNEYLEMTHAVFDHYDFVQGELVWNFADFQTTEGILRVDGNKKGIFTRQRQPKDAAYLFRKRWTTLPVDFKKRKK
The note with it: pNPG as substrate; optimal pH 6.0; 37 °C.

Test [6] deals with Clostridium perfringens GUS (CpGUS) (Clostridium perfringens, UniProt Q8VNV4). The note with it: pH 6.5.
In test [7] the test system is BdGUS (−)CBM Loop mutant. The test can be described thus: pNPG processing by BdGUS (−)CBM Loop mutant. The note with it: deletion of CBM loop of BdGUS; Fig. S13a.
Test [8] relates to EeGUS (−)EeLoop mutant. Briefly: pNPG processing by EeGUS (−)EeLoop mutant. The following applies: deletion of residues M149 to A159 (Ee Extra Loop); Fig. S13c.

Chain of E. coli GUS (EcGUS) (P05804 whole entry): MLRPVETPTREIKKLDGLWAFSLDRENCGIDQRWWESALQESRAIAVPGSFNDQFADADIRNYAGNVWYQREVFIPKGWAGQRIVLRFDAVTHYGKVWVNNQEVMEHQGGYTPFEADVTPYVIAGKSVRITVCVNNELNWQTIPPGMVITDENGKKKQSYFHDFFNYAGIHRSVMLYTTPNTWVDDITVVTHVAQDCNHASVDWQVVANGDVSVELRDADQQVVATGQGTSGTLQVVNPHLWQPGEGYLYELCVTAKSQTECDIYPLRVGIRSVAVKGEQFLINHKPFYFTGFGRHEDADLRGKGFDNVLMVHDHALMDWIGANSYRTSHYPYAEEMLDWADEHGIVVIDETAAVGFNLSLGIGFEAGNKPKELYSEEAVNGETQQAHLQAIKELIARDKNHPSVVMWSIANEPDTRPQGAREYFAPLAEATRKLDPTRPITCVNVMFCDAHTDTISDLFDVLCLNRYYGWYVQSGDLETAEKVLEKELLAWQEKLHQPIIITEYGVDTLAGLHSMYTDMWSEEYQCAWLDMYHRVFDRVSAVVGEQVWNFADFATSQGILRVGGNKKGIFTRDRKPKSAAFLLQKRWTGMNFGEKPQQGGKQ

On to `O=C(O)Cc1ccccc1Nc1c(Cl)cccc1Cl` [DCF, diclofenac], for which, in test [1], the “GUS activity (pNPG processing) in faecal extracts compared to pre-treatment levels” value is recorded as “increases GUS activity”.

For orientation: Km means the concentration of substrate that gives half-maximal velocity. As a reminder, the kcat is the maximal rate divided by the concentration of active sites. As to `O=C(O)[C@H]1O[C@@H](Oc2ccc([N+](=O)[O-])cc2)[C@H](O)[C@@H](O)[C@@H]1O` [pNPG, p-nitrophenol-β-D-glucuronide], the Km in test [2] is 130 ± 10 µM. In addition, the “kcat (s^−1)” value in test [2] is given as 120 ± 10^a s^−1. In addition, the turnover number (kcat) was 10.0 s⁻¹ in test [3], 2.8 s⁻¹ in test [4], 58 s⁻¹ in test [5] and 57 s⁻¹ in test [6]. Besides, the “activity of mutant with pNPG (in words)” value in test [7] is “inactive”. Also, the “pNPG cleavage rate of mutant relative to WT” value in test [8] is recorded as 9%.

The record behind these values is PMC6351562, “Structure, function, and inhibition of drug reactivating human gut microbial β-glucuronidases” (Scientific Reports, 2019).
